How the values were obtained:
[1] = test system: eye of normal adult white rabbits; experiment: IOP after topical drops of 1% solution, Examples 6 and 7; format: in vivo, rabbit; parameters: unit: mm Hg; conditions: 3 drops
Protocol: A 1% solution of 1-(N-hydroxy-N-methylsulfamido)-4-chlorobenzene and a 1% solution of 1-(N-hydroxy-N-methyl-sulfamido)-4-nitrobenzene were prepared for two separate experiments, examples 6 and 7 resepctively. The vehicle consisted of aqueous pH 7.2 phosphate buffer. One drop, followed by two drops each at one minute intervals, was applied to one eye of normal adult white rabbits. Six rabbits were used in example 6 and twelve rabbits in example 7. The treated eye was selected randomly, whereas, the fellow eye received placebo. The observer was masked. The intraocular pressure (IOP) was measured with a Digilab pneumotonometer, initially and every ten minutes for 180 minutes in each experiment following instillation of the anti-glaucoma agent. A drop of local anesthetic was applied to each eye just prior to making the measurement.

[2] = test system: eye of normal adult white rabbits; experiment: Salted rabbit test: intraocular pressure (IOP) after topical drops; format: in vivo
Protocol: In particular, an initial drop from the test formulation followed by two drops at one minute intervals are applid to one eye of each of six adult white rabbits that had been maintained on a diet containing 0.5% sodium. The treated eye was selected randomly, whereas, the fellow eye received placebo; the observer was masked. Results identified a small but significant reduction of intraocular pressure in the treated eye at 30, 60 and 120 minutes.
One drop, followed by two drops each at one minute intervals, was applied to one eye of normal adult white rabbits. Six rabbits were used in the experiment. The treated eye was selected randomly, whereas, the fellow eye received placebo. The observer was masked. The intraocular pressure (IOP) was measured with a Digilab Pneumotonometer, initially and every ten minutes for 120 minutes following instillation of the anti-glaucoma agent. A drop of local anesthetic was applied just prior to making the measurement.
IOP* Changes = (IOPDET - IOPCET) - (IOPDEO - IOPCEO)
IOPDET = measurement (mm Hg) of dosed eye at time t.
IOPDEO = measurement (mm Hg) of dosed eye at t = 0, but prior to
IOPDET = IOP measurement (mm Hg) of control (nondosed) eye at time t
IOPCEO = IOP measurement (mm Hg) of control eye at time t = 0
*Difference in IOP measurements (mm Hg) between both eyes just prior to
dosing at t = 0 (i.e., IOPDEO - IOPCEO).

carbonic anhydrase = experiment: in vitro carbonic anhydrase activity, simplified method of Maren; format: biochemical
Protocol: The procedure required the use of a specialized glass reaction vessel to which was added 0.4 ml phenol red indicator (0.00125%), 0.25 to 0.30 ml heparinized blood containing 2 enzyme units of carbonic anhydrase, 0.1 ml drug solution (0.01 to 100 mg/L) and 0.1 ml of 0.255 M carbonate buffer. […] Water was added to the reaction vessel which was kept in a water bath at 0±0.25° C. The reaction cell was constantly purged with CO2 at a rate of 200 to 250 ml/min. Each reagent was added at a specified time and in a specified order. […] The time required for the reaction begins with the addition of carbonate buffer and was completed with the indicator changed from red to yellow. […] Reaction time was the time for the uncatalyzed reaction time. The reaction times remain constant once equilibration has been attained. By varying the time before adding the carbonate buffer and then determining the reaction time, the equilibration time can be accurately determined. The reaction time was averaged over three determinations. A range of drug concentrations were reacted and the concentration of drug causing 50% inhibition of enzyme (I50) read from a plot of reaction time against drug concentration. (If two enzyme units are added, then the concentration of drug yielding a reaction time corresponding to the activity of one unit is taken as the I50). An enzyme unit (e.u.) was calculated from: [formula]

## CN(O)S(=O)(=O)c1ccc([N+](=O)[O-])cc1 [1-(N-hydroxy-N-methyl-sulfamido)-4-nitrobenzene]
[1]; Example 7, 0 min
  IOP changes, Ave. change: 0.167
[1]; Example 7, 10 min
  IOP changes, Ave. change: 0.333
[1]; Example 7, 20 min
  IOP changes, Ave. change: -0.333
[1]; Example 7, 30 min
  IOP changes, Ave. change: -.667
[1]; Example 7, 40 min, probability less than 0.05
  IOP changes, Ave. change: -1.67
[1]; Example 7, 50 min, probability less than 0.025
  IOP changes, Ave. change: -1.83
[1]; Example 7, 60 min, probability less than 0.025 (footnote)
  IOP changes, Ave. change: 1.67
[1]; Example 7, 70 min, probability less than 0.025
  IOP changes, Ave. change: -2.0
[1]; Example 7, 80 min, probability less than 0.05
  IOP changes, Ave. change: -1.167
[1]; Example 7, 90 min
  IOP changes, Ave. change: 0.2
[1]; Example 7, 100 min
  IOP changes, Ave. change: -0.5
[1]; Example 7, 110 min
  IOP changes, Ave. change: -0.33
[1]; Example 7, 120 min
  IOP changes, Ave. change: -1.00

## CNS(=O)(=O)c1nnc(NC(C)=O)s1 [methyl acetazolamide, N-methyl-2-acetylamino-1,3,4-thiadiazole-5-sulfonamide]
[2]; 0 min, just prior to dosing (baseline, IOPDEO - IOPCEO), six rabbits
  IOP difference between both eyes, Av. Chg.: 1.83 mm Hg
[2]; 1% w/v suspension, 3 drops, all time intervals to 120 min
  lowering of IOP, statistical significance: statistically significant at all time intervals
[2]; after topical administration
  reduction of intraocular pressure: able to reduce intraocular pressure
Carbonic anhydrase; 2 enzyme units of carbonic anhydrase in heparinized blood, 0° C., averaged over three determinations
  averaged I50 (concentration of drug causing 50% inhibition of enzyme): 0.520 mg
Carbonic anhydrase; in vitro
  in vitro activity: inactive in vitro
Carbonic anhydrase; ratio 0.52/0.00914
  activity relative to acetazolamide (ratio of I50 values): 1/60

## CN(O)S(=O)(=O)c1ccc(Cl)cc1 [1-(N-hydroxy-N-methylsulfamido)-4-chlorobenzene]
[1]; Example 6, 0 min
  IOP changes, Ave. change: 0.417
[1]; Example 6, 20 min
  IOP changes, Ave. change: 0.617
[1]; Example 6, 40 min
  IOP changes, Ave. change: 1.00
[1]; Example 6, 60 min, probability less than 0.025
  IOP changes, Ave. change: -1.25
[1]; Example 6, 80 min
  IOP changes, Ave. change: 0.167
[1]; Example 6, 100 min
  IOP changes, Ave. change: 0.667
[1]; Example 6, 120 min
  IOP changes, Ave. change: 0.333
[1]; Example 6, 140 min
  IOP changes, Ave. change: -.333
[1]; Example 6, 160 min
  IOP changes, Ave. change: -0.25
[1]; Example 6, 180 min
  IOP changes, Ave. change: -0.25

Reference: US4483872A, “Non-classical topical treatment for glaucoma using n-substituted sulfonamides” (University of Iowa Research Foundation, priority 1983, dated 1984)
